Where two headings read alike, the source gives them in different places.
Legend:
[1] = test system: denervated supersensitive postsynaptic dopamine receptors; assay: In vivo functional test: contralateral circling in rats with unilateral 6-hydroxydopamine lesions of the substantia nigra; set-up: species or system rat; conditions: for ED50: contralateral circling, rats, unilateral 6-hydroxydopamine lesion
From the text: Dopamine agonists produce contralateral circling behavior in rats in which unilateral lesions of the substantial nigra are made by prior injection of 6-hydroxydopamine. The circling is thought to be mediated by stimulation of denervated supersensitive postsynaptic dopamine receptors (Marshall and Ungerstedt, 1977, Eur. J. Pharmacol., 41:361-367).

[2] = biological target: adrenergic α2 receptor (Rattus norvegicus, UniProt P22909); assay: Adrenergic α2 in vitro functional test (rat vas deferens, inhibition of twitch); format: biochemical
Protocol: (§1) Vasa deferentia from male Sprague-Dawley rats weighing between 150-250 g were removed and placed in isolated organ baths containing Krebs-Henseleitsolution under a resting tension of 1 g. All other set up conditions were identical to those used for the mouse was deferens. Tissues were pretreated with propranolol (1 μM), ascorbic acid (100 μM) and the α1 -adrenergic antagonist prazosin (0.3 or 1 μM) for 60 min before the addition of test compound.

[3] = biological target: dopamine D2 receptor (Mus musculus, UniProt P61168); assay: biochemical; format: biochemical
Sequence of dopamine D2 receptor (P61168 whole entry): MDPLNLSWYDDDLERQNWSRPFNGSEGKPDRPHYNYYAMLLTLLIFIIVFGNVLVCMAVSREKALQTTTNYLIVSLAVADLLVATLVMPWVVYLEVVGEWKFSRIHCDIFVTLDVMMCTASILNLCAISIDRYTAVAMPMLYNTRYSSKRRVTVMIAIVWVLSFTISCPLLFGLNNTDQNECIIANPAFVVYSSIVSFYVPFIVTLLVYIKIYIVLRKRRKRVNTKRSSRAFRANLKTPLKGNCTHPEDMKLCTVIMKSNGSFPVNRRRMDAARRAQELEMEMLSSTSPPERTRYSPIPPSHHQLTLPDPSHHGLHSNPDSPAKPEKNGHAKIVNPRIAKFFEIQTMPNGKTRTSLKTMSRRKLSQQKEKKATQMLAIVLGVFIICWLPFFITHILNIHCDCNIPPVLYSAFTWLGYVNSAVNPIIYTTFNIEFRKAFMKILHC
Protocol: Vasa deferentia from male BALB/C mice weighing approximately 30 g were removed and placed in isolated organ baths containing magnesium-free modified Krebs-Henseleit solution which was gassed with 95% O2 and 5% CO2 and maintained at 37° C. Tissues were set up under resting tension of 0.5 g and stimulated electrically at 60 volts, 0.1 Hz and 1 msec duration to produce a series of twitch responses. Tissues were pretreated with propranolol (1 μM) to block β-adrenoceptors, idazoxan (3 μM) to block α2 -adrenoceptors receptors, and ascorbic acid (100 μM) for 60 min before the addition of test compound.

[4] = biological target: Dopamine D2 receptor (Bos taurus, UniProt P20288); assay: biochemical; format: binding, bovine
Sequence of Dopamine D2 receptor (P20288 whole entry): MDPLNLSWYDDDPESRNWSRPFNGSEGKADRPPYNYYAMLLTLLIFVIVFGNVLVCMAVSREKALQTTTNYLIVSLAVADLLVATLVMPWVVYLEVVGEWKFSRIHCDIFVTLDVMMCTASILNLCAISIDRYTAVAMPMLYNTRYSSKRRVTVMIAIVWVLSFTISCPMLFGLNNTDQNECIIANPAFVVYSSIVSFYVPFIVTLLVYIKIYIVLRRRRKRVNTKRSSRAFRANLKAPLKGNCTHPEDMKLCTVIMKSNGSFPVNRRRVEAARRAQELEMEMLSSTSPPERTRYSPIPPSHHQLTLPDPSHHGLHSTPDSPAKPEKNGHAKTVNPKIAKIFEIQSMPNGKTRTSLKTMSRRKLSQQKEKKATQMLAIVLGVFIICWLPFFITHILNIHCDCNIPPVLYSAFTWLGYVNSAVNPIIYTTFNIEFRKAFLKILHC
Protocol: (§2) Membranes were prepared using a Brinkmann Polytron and collected by centrifugation. Membrane sources were bovine caudate (D2,D1) or rat cortex (α2). The membranes were washed, resuspended, and incubated at 37° C. for 30 min. in either the presence (rat cortex) of 1 μ/ml adenosine deaminase or absence (bovine caudate) of 0.1 μ/ml adenosine deaminase. Membranes were centrifuged, washed once and frozen at -70° C. until used. Immediately before use, the membranes were thawed, washed once, and resuspended to a final concentration of 0.5-2 mg/ml. Assays were initiated by addition of membranes. For D2 and D1 assays, the radioligands and conditions used were ^3 H-Spiperone (RT, 75 min.) and ^3 H-SCH23390 (37° C., 15 min.), respectively. For α2 assays, ^3 H-PAC (RT, 30 min.) was used Assays were terminated by filtration using a Brandel cell harvester over Whatman GF/B filters that had been pretreated with 0.1% polyethylenimine. […]

[5] = biological target: Dopamine D1 receptor (Bos taurus, UniProt Q95136); assay: biochemical; format: binding, bovine
Sequence of Dopamine D1 receptor (Q95136 whole entry): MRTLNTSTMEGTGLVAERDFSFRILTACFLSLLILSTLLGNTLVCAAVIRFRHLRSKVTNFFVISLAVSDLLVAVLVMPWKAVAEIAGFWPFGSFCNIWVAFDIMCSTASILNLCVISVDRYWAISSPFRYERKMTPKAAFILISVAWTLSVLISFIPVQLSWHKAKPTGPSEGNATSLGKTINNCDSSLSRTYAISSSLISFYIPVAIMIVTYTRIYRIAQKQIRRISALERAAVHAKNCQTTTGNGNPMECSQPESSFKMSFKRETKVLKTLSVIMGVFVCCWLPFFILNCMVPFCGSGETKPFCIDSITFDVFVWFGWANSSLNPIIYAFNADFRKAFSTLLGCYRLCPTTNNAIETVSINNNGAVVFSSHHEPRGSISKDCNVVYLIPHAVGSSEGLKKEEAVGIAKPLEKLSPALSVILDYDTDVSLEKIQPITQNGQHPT
Protocol: as §2

[6] = biological target: T1, adrenergic α2 receptor (Rattus norvegicus, UniProt P22909); assay: Adrenergic α2 in vitro functional test (rat vas deferens, inhibition of twitch); format: biochemical; remark: listed apart in the source
T1 sequence (P22909 1-465): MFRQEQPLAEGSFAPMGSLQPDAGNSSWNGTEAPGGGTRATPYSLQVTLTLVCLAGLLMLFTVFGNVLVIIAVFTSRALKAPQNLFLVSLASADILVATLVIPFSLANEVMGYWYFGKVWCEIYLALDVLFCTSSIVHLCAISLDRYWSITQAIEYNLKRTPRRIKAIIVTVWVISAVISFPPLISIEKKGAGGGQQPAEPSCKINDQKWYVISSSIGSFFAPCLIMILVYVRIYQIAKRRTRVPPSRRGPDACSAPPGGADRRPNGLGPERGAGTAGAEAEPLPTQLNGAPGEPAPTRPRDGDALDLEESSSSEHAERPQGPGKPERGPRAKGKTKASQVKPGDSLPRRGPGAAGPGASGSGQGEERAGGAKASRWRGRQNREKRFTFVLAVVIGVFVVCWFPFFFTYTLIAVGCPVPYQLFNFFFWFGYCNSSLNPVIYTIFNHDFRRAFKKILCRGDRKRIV
Protocol: as §1

[7] = concentration that produces 50% of the maximal inhibition of twitch, mouse vas deferens, read-out: D2 A50
[8] = bovine caudate membranes, 3H-Spiperone, RT, 75 min, read-out: D2 K1
[9] = bovine caudate membranes, 3H-SCH23390, 37° C., 15 min, read-out: D1 K1
[10] = concentration that produces 50% of the maximal inhibition of twitch, rat vas deferens, read-out: a2 A50

Compound	ED50 [1]	EC50 [2]	EC50 [3, 7]	Ki [4, 8]	Ki [5, 9]	in vivo functional potency (in words) ([1]; rat, in vivo)	EC50 [6, 10]	dopamine D2 receptor in vitro functional activity/potency (in words) [3]	D2 receptor specificity (in words) ([3]; D2 vs. α2)	Specificity Ratio (a2 A50/D2 A50) [3]	dopamine D2 receptor affinity (in words) [4]	Selectivity Ratio (D1 K1/D2 K1) [4]	D2 receptor selectivity (in words) ([4]; D2 vs. D1)	EC50 [6]	EC50 [3]	Ki [4]	Ki [5]
CCCN(CCOC)[C@H]1CCc2c(ccc(O)c2O)C1 [Example 4]	0.006 µmol/kg	42.7 nM	0.603 nM	363 nM	7080 nM	–	–	–	–	–	–	–	–	–	–	–	–
CCCN(CCOC(C)(C)C)[C@H]1CCc2c(ccc(O)c2O)C1 [Example 9, (S)-6-[[2-(1,1-dimethylethoxy)ethyl]propylamino]-5,6,7,8-tetrahydro-1,2-naphthalenediol]	0.004 µmol/kg	–	0.089 nM	54 nM	8910 nM	high in vivo functional potency	144 nM	high affinity, selectivity, specificity, and functional potency	high affinity, selectivity, specificity	1620	high affinity	166	high affinity, selectivity	–	–	–	–
CCCCCOCCN(CCC)[C@H]1CCc2c(ccc(O)c2O)C1 [Example 10]	0.030 µmol/kg	–	0.093 nM	54 nM	2450 nM	–	93.3 nM	–	–	1000	–	46	–	–	–	–	–
CCCN(CCC1CCCO1)[C@H]1CCc2c(ccc(O)c2O)C1 (stereo partly shown) [Example 11]	0.010 µmol/kg	–	1.29 nM	30 nM	4270 nM	–	79.4 nM	–	–	62	–	141	–	–	–	–	–
CCCN(CCC1CCCCO1)[C@H]1CCc2c(ccc(O)c2O)C1 (stereo partly shown) [Example 12]	0.030 µmol/kg	–	0.2 nM	25 nM	5490 nM	–	199 nM	–	–	1000	–	224	–	–	–	–	–
CCCN(CCCOC(C)C)[C@H]1CCc2c(ccc(O)c2O)C1 [Example 13]	0.006 µmol/kg	–	0.102 nM	51 nM	5750 nM	–	93.3 nM	–	–	914	–	113	–	–	–	–	–
CCCN(CCC1CCOC1)[C@H]1CCc2c(ccc(O)c2O)C1 (stereo partly shown) [Example 14]	0.030 µmol/kg	–	0.209 nM	195 nM	6610 nM	–	14.8 nM	–	–	71	–	34	–	–	–	–	–
CCCN(CC1CCOC1)[C@H]1CCc2c(ccc(O)c2O)C1 (stereo partly shown) [Example 15]	0.009 µmol/kg	–	0.141 nM	1100 nM	1100 nM	–	16.6 nM	–	–	118	–	1	–	–	–	–	–
CCCN(CCOC1CCCC1)[C@H]1CCc2c(O)cccc2C1 [Example 16]	0.090 µmol/kg	–	0.513 nM	62 nM	7940 nM	–	> 10000 nM	–	–	> 19500	–	129	–	–	–	–	–
CCCN(CCOC1CC1)[C@H]1CCc2c(O)cccc2C1 [Example 17]	0.009 µmol/kg	–	0.589 nM	468 nM	9770 nM	–	> 10000 nM	–	–	> 17000	–	21	–	–	–	–	–
CCCN(CCOC1CCC1)[C@H]1CCc2c(O)cccc2C1 [Example 18]	0.020 µmol/kg	–	0.676 nM	200 nM	8910 nM	–	> 10000 nM	–	–	> 14800	–	45	–	–	–	–	–
CCCN(CCC1CCCO1)[C@H]1CCc2c(O)cccc2C1 (stereo partly shown) [Example 19]	0.020 µmol/kg	–	0.275 nM	110 nM	1510 nM	–	1740 nM	–	–	6310	–	14	–	–	–	–	–
CCCN(CC1CCCCO1)[C@H]1CCc2c(O)cccc2C1 (stereo partly shown) [Example 20]	0.030 µmol/kg	–	1 nM	1070 nM	7080 nM	–	190 nM	–	–	191	–	7	–	–	–	–	–
CCCN(CC1CCOC1)[C@H]1CCc2c(O)cccc2C1.Cl (stereo partly drawn) [Example 21, (6S)-5,6,7,8-tetrahydro-6-[[(tetrahydro-3-furanyl)methyl]propylamino]-1-naphthalenol, hydrochloride]	0.009 µmol/kg	–	0.977 nM	151 nM	3630 nM	–	275 nM	–	–	282	–	24	–	–	–	–	–
CCCN(CC1CCCO1)[C@H]1CCc2c(O)cccc2C1 (stereo partly shown) [Example 22]	0.030 µmol/kg	–	2.19 nM	1510 nM	16200 nM	–	3550 nM	–	–	1620	–	11	–	–	–	–	–
CCCN(CCC1CCCCO1)[C@H]1CCc2c(O)cccc2C1 (stereo partly shown) [Example 23]	0.010 µmol/kg	–	0.437 nM	110 nM	7410 nM	–	> 10000 nM	–	–	> 22900	–	68	–	–	–	–	–
CCCN(CCC1CCOC1)[C@H]1CCc2c(O)cccc2C1 (stereo partly shown) [Example 24]	0.020 µmol/kg	–	0.776 nM	263 nM	5620 nM	–	123 nM	–	–	158	–	21	–	–	–	–	–
CCCN(CCC)C1CCc2c(O)cccc2C1 (stereo not shown) [Example 39, 5-hydroxy-2-(di-n-propyl)aminotetralin, reference compound]	0.010 µmol/kg	–	–	–	–	–	–	–	–	120	–	5	–	257 nM	2.14 nM	790 nM	3800 nM
CCCN(CCCOC)[C@H]1CCc2c(O)cccc2C1 [Example 41, (S)-5,6,7,8-tetrahydro-6-[(3-methoxypropyl)propylamino]-l-naphthalenol, reference compound]	0.020 µmol/kg	–	0.91 nM	790 nM	11000 nM	–	234 nM	–	–	257	–	14	–	–	–	–	–

— US5382596A, “Substituted 2-aminotetralins” (priority 1993, dated 1995)
